Data reported in ChEMBL document CHEMBL5331045, “Recent advances in β-lactamase inhibitor chemotypes and inhibition modes” (Eur J Med Chem, 2022).
Each block holds one molecule with its values, some of them ahead of it.

What was measured:
[1] = Inhibition of Aeromonas hydrophila VIM2 preincubated for 30 mins followed by nitrocefin solution measured by UV based microtitre plate analysis
[2] = Inhibition of Aeromonas hydrophila VIM4 preincubated for 30 mins followed by nitrocefin solution measured by UV based microtitre plate analysis
[3] = Inhibition of Aeromonas hydrophila NDM1 preincubated for 30 mins followed by nitrocefin solution measured by UV based microtitre plate analysis
[4] = Binding affinity to VIM2 (unknown origin) assessed as inhibition constant; design: species or system Bacteria
[5] = Binding affinity to NDM1 (unknown origin) assessed as inhibition constant; design: species or system Bacteria
[6] = Binding affinity to IMP1 (unknown origin) assessed as inhibition constant; design: species or system Bacteria
[7] = Binding affinity to Sfh1 (unknown origin) assessed as inhibition constant; design: species or system Homo sapiens
[8] = Binding affinity to L1 (unknown origin) assessed as inhibition constant; design: species or system Homo sapiens
[9] = Binding affinity to VIM2 (unknown origin) expressed in Escherichia coli BL21 (DE3) assessed as inhibition constant using IPM as substrate incubated for 5 mins; design: species or system Homo sapiens
[10] = Binding affinity to IMP1 (unknown origin) expressed in Escherichia coli BL21 (DE3) assessed as inhibition constant using IPM as substrate incubated for 5 mins; design: species or system Homo sapiens
[11] = Inhibition of IMP1 (unknown origin); design: species or system Bacteria
Beta-lactamase VIM-1 [12] = biological target: T1, Beta-lactamase VIM-1 (Bacteria, UniProt Q8GDC1); experiment: Inhibition of VIM1 (unknown origin)
[13] = Binding affinity to VIM4 (unknown origin) assessed as inhibition constant; design: species or system Homo sapiens
Beta-lactamase VIM-1 [14] = biological target: T1, Beta-lactamase VIM-1; experiment: Binding affinity to VIM1 (unknown origin) assessed as inhibition constant
[15] = biological target: T2, Metallo-beta-lactamase type 2 (Bacteria, UniProt C7C422); experiment: Inhibition of NDM1 (unknown origin) using cefazolin as substrate
T2 sequence (C7C422 whole entry): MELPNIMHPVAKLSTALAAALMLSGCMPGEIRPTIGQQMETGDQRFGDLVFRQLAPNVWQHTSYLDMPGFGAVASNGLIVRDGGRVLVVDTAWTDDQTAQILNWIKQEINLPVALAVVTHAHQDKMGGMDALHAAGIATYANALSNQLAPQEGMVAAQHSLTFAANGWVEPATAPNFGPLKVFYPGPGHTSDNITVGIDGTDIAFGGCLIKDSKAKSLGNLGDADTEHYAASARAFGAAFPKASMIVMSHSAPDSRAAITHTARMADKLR

[16] = Inhibition of IMP1 (unknown origin) using cefazolin as substrate; design: species or system Homo sapiens
[17] = Inhibition of Imis (unknown origin) using cefazolin as substrate; design: species or system Homo sapiens
[18] = Inhibition of L1 (unknown origin) using cefazolin as substrate; design: species or system Homo sapiens
[19] = Inhibition of VIM2 (unknown origin); design: species or system Bacteria
[20] = biological target: T2, Metallo-beta-lactamase type 2; experiment: Inhibition of NDM1 (unknown origin); conditions: read-out: pIC50 (converted)
[21] = Inhibition of VIM2 (unknown origin) by spectroscopic analysis; design: species or system Homo sapiens
[22] = Inhibition of VIM2 (unknown origin) using nitrocefin as substrate incubated for 30 mins; design: species or system Homo sapiens
[23] = Inhibition of IMP1 (unknown origin) using nitrocefin as substrate incubated for 30 mins; design: species or system Homo sapiens
[24] = biological target: T2, Metallo-beta-lactamase type 2; experiment: Inhibition of NDM1 (unknown origin) by spectroscopic analysis
[25] = Inhibition of IMP1 (unknown origin) by spectroscopic analysis; design: species or system Homo sapiens
[26] = Inhibition of L1 (unknown origin) by spectroscopic analysis; design: species or system Homo sapiens
[27] = Inhibition of Escherichia coli beta-lactamase CMY-2
Beta-lactamase TEM-1 = Beta-lactamase TEM-1 (Escherichia coli, UniProt Q4GY26); experiment: Inhibition of Escherichia coli beta-lactamase TEM-1
Chain of Beta-lactamase TEM-1 (Q4GY26 whole entry): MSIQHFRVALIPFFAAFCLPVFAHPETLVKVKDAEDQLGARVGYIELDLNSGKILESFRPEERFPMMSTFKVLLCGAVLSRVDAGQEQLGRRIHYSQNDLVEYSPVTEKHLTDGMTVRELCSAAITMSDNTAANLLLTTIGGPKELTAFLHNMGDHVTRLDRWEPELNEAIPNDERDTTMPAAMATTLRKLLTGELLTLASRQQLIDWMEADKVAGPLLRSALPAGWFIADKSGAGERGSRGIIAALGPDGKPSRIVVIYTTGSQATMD

Beta-lactamase CTX-M-14 = Beta-lactamase CTX-M-14 (Escherichia coli, UniProt Q9L5C7); experiment: Inhibition of Escherichia coli beta-lactamase CTX-M-14
Chain of Beta-lactamase CTX-M-14 (Q9L5C7 whole entry): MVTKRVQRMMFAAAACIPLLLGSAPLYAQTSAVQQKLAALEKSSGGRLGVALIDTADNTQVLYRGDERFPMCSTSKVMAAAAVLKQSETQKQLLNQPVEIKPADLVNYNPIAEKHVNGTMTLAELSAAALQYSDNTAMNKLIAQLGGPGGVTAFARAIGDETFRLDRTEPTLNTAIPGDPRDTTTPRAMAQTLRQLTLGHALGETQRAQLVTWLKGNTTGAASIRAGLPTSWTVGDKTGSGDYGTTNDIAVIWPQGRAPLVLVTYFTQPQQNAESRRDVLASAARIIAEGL

[28] = Inhibition of Escherichia coli beta-lactamase CTX-M-15
[29] = Inhibition of Escherichia coli beta-lactamase CTX-M-44
Beta-lactamase = Beta-lactamase (Enterobacter cloacae, UniProt P05364); experiment: Inhibition of Enterobacter cloacae AmpC
Chain of Beta-lactamase (P05364 whole entry): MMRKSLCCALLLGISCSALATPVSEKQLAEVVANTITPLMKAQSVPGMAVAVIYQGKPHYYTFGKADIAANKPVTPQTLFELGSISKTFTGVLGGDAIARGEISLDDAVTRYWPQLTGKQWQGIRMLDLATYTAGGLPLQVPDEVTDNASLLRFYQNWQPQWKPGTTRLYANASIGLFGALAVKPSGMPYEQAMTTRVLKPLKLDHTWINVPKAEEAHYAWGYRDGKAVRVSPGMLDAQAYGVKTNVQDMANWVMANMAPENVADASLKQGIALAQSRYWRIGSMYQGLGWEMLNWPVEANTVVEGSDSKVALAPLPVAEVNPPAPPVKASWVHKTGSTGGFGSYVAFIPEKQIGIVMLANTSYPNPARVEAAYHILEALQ

Beta-lactamase OXA-1 = Beta-lactamase OXA-1 (Escherichia coli, UniProt P13661); experiment: Inhibition of Escherichia coli beta-lactamase OXA-1
Chain of Beta-lactamase OXA-1 (P13661 whole entry): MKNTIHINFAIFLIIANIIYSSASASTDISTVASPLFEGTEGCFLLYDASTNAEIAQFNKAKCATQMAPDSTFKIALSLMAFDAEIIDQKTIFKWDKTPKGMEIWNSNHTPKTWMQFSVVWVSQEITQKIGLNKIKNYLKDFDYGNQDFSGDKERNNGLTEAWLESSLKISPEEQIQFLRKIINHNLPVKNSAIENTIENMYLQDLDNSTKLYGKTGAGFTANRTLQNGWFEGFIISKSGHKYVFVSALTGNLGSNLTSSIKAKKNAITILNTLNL

[30] = Inhibition of Pseudomonas aeruginosa beta-lactamase OXA-2
[31] = Inhibition of CphA (unknown origin); design: species or system Homo sapiens
[32] = Inhibition of Aeromonas hydrophila IMP1 preincubated for 30 mins followed by nitrocefin solution measured by UV based microtitre plate analysis
[33] = Inhibition of Escherichia coli beta-lactamase TEM-10
[34] = biological target: Carbapenem-hydrolyzing beta-lactamase KPC (Klebsiella pneumoniae, UniProt Q9F663); experiment: Inhibition of Klebsiella pneumoniae beta-lactamase KPC-2
Chain of Carbapenem-hydrolyzing beta-lactamase KPC (Q9F663 whole entry): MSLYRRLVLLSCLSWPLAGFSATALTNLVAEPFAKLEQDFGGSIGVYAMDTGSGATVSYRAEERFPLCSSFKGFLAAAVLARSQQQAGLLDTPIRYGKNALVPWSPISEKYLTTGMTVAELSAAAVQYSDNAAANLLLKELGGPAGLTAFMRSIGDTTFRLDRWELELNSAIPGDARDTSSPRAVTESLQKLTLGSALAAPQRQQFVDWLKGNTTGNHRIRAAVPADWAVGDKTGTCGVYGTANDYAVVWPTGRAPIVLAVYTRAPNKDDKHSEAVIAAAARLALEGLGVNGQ

Beta-lactamase OXA-23 = Beta-lactamase OXA-23 (Acinetobacter baumannii, UniProt Q9L4P2); experiment: Inhibition of Acinetobacter baumannii beta-lactamase OXA-23
Chain of Beta-lactamase OXA-23 (Q9L4P2 whole entry): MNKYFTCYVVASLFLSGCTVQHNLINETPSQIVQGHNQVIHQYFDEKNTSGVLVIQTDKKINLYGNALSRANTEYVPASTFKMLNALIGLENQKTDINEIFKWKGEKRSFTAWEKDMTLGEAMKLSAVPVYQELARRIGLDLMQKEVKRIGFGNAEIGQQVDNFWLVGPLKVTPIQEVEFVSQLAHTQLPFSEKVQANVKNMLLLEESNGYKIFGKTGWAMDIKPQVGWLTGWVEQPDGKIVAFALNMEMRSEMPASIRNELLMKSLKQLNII

[35] = Inhibition of VIM2 (unknown origin) using fluorescent cephalosporin FC5 as substrate incubated for 15 mins followed by substrate addition measured by fluorescence based analysis; design: species or system Homo sapiens
[36] = biological target: T2, Metallo-beta-lactamase type 2; experiment: Inhibition of NDM1 (unknown origin) using fluorescent cephalosporin FC5 as substrate incubated for 15 mins followed by substrate addition measured by fluorescence based analysis
[37] = Inhibition of IMP28 (unknown origin) using fluorescent cephalosporin FC5 as substrate incubated for 15 mins followed by substrate addition measured by fluorescence based analysis; design: species or system Homo sapiens

IC50 [1]: 14000 nM
IC50 [2]: 19000 nM
IC50 [3]: 34000 nM
Structure (SMILES): Nn1c(-c2cc3ccccc3[nH]2)n[nH]c1=S

Ki [4]: 380 nM
Ki ([5]; read-out: Ki): 5200 nM
Ki ([6]; read-out: Ki): 1000 nM
Ki [7]: 160 nM
Ki [8]: 10000 nM
Structure (SMILES): COC(=O)[C@]1(CS)N[C@H](C(=O)O)CS1

Structure (SMILES): Cc1oc(C)c(S(N)(=O)=O)c1C(=O)O
Ki [9]: 2810 nM
Ki [10]: 220 nM

IC50 [11]: 0.16 nM
IC50 (Beta-lactamase VIM-1 [12]; read-out: IC50): 0.125 nM
Structure (SMILES): Nc1nc2c(-c3ccc(S(=O)(=O)NC[C@H]4CCNC4)c(S(N)(=O)=O)c3-c3nnn[nH]3)cccc2s1

Ki [4]: 750 nM
Ki ([5]; read-out: Ki): 440 nM
Ki ([6]; read-out: Ki): 460 nM
Ki [7]: 1300 nM
Ki [8]: 20000 nM
Structure (SMILES): COC(=O)[C@]1(CS)N[C@H](C(=O)O)C(C)(C)S1

Ki [4]: 240 nM
Ki ([5]; read-out: Ki): 8200 nM
Ki ([6]; read-out: Ki): 76000 nM
Ki [13]: 570 nM
Ki (Beta-lactamase VIM-1 [14]): 3600 nM
Structure (SMILES): O=C(O)c1ccccc1CNn1c(-c2cccc(-c3ccccc3)c2)n[nH]c1=S

Structure (SMILES): Nc1nc2cccc(-c3ccc(S(N)(=O)=O)c(S(N)(=O)=O)c3-c3nn[nH]n3)c2[nH]1
IC50 [11]: 0.58 nM
IC50 (Beta-lactamase VIM-1 [12]; read-out: IC50): 0.264 nM

Ki [4]: 350 nM
Ki ([5]; read-out: Ki): 99800 nM
Ki [6]: Not Active
Ki [13]: 270 nM
Ki (Beta-lactamase VIM-1 [14]): 5500 nM
Structure (SMILES): O=C(O)CCCn1c(-c2cccc(-c3ccccc3)c2)n[nH]c1=S

Structure (SMILES): CCc1c(C(=O)O)c(S(N)(=O)=O)c(CC)n1C
Ki [9]: 20 nM
Ki [10]: 260 nM

IC50 [15]: 2930 nM
IC50 [16]: 280 nM
IC50 [17]: 4860 nM
IC50 [18]: 6680 nM
Structure (SMILES): O=C(O)C1=C(CSc2nnc(-c3ccc(-n4[se]c5ccccc5c4=O)cc3)[nH]2)CSC2[C@@H](NC(=O)c3ccccc3)C(=O)N12 (stereo partly drawn)

pIC50 [19]: 7.7
pIC50 [11]: 9.2
IC50 (Beta-lactamase VIM-1 [12]; read-out: pIC50 (converted)): 126 nM
Structure (SMILES): NS(=O)(=O)n1ccc(-c2ccc(F)cc2)c1C(=O)O

IC50 [20]: 1.26 nM
pIC50 [11]: 8.5
IC50 (Beta-lactamase VIM-1 [12]; read-out: pIC50 (converted)): 10 nM
pIC50 [21]: 8.1
Structure (SMILES): CC(C)c1cccc2c1N=C(C(=O)O)C2c1ccc(CS(C)(=O)=O)c(Cl)c1 (stereo not drawn)

IC50 [22]: 67300 nM
IC50 [23]: 40 nM
Structure (SMILES): NS(=O)(=O)n1ccc(-c2ccc(C3CCNCC3)cc2)c1C(=O)O

Ki [4]: 340 nM
Ki [5]: Not Active
Ki [6]: Not Active
Ki [13]: 1270 nM
Ki (Beta-lactamase VIM-1 [14]): 4690 nM
Structure (SMILES): O=C(O)c1ccccc1CCn1c(-c2cccc(OCCN3CCOCC3)c2)n[nH]c1=S

Structure (SMILES): O=C(O)c1cccc(C(O)P(=O)(O)O)n1 (stereo not drawn)
IC50 [21]: 1900 nM
IC50 [24]: 322 nM
IC50 [25]: 7200 nM
IC50 [26]: 2050 nM

IC50 [27]: 44 nM
IC50 (Beta-lactamase TEM-1): 7 nM
IC50 (Beta-lactamase CTX-M-14): 3 nM
IC50 [28]: 1 nM
IC50 [29]: 4 nM
IC50 (Beta-lactamase): 923 nM
IC50 (Beta-lactamase OXA-1): 130 nM
IC50 [30]: 485 nM
Structure (SMILES): NC(=O)[C@@H]1CC[C@@H]2CN1C(=O)N2OS(=O)(=O)O [AVIBACTAM]

IC50 [31]: 72000 nM
Structure (SMILES): C[C@H](CS)C(=O)N1CCC[C@@H]1C(=O)O [D-CAPTOPRIL]

Structure (SMILES): O=c1c2ccccc2[se]n1-c1ccccc1 [EBSELEN]
Ki ([5]; read-out: Ki): 380 nM

IC50 [32]: 1400 nM
IC50 [27]: 15 nM
IC50 (Beta-lactamase TEM-1): 26 nM
IC50 [33]: 96 nM
IC50 (Beta-lactamase CTX-M-14): 10 nM
IC50 [28]: 13 nM
IC50 [29]: 22 nM
IC50 [34]: 869 nM
IC50 (Beta-lactamase): 845 nM
IC50 (Beta-lactamase OXA-1): 3050 nM
IC50 [30]: 1070 nM
IC50 (Beta-lactamase OXA-23): 46400 nM
Structure (SMILES): NCCONC(=O)[C@@H]1CC[C@@H]2CN1C(=O)N2OS(=O)(=O)O [NACUBACTAM]

Structure (SMILES): O=C(O)CN(CC(=O)O)CC(=O)O [NITRILOTRIACETIC ACID]
IC50 [35]: 2400 nM
IC50 [36]: 1300 nM
IC50 [37]: 112000 nM
